Test results reported in article PMC12136031 (Science Advances, 2025).

Columns and labels:
[1] = system: TFEB; experiment: Immunoblot of TFEB in OC43-infected BEAS-2B cells; type: cell-based, human; settings: for TFEB protein during viral infection: OC43, cotreatment with inhibitors of ubiquitin-proteasome system; for Decline in TFEB protein levels during viral infection: OC43, mTORC1 inhibition (10 nM)
[2] = biological target: T1, DCAF7 recombinant protein, P61962; experiment: streptavidin pull-down (peptide binding assay), DCAF7 immunoblot densitometry; settings: chain shown with the change; n = 3; parent: est. 1.0; read off a plot
T1 chain: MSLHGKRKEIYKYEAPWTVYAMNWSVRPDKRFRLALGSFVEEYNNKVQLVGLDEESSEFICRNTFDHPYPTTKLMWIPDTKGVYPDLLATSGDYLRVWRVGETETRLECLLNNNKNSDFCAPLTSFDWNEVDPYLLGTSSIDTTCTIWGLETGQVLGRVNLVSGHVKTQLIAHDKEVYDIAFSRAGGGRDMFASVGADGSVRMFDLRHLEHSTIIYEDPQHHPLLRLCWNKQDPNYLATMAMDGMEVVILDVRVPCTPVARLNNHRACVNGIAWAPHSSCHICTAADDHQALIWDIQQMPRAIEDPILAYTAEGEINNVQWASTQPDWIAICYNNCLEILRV

## NS(=O)(=O)OC[C@H]1C[C@@H](Nc2ccnc3cc(-c4cccc(SC(F)(F)F)c4)nn23)[C@H](O)[C@@H]1O [TAK-243]
[1]
  TFEB protein during viral infection: substantially preserved

## NS(=O)(=O)OC[C@@H]1C[C@@H](n2ccc3c(N[C@H]4CCc5ccccc54)ncnc32)C[C@@H]1O [MLN4924]
[1]
  TFEB protein during viral infection: substantially preserved

## CO[C@H]1C[C@@H]2CC[C@@H](C)[C@@](O)(O2)C(=O)C(=O)N2CCCC[C@H]2C(=O)O[C@H]([C@H](C)C[C@@H]2CC[C@@H](O)[C@H](OC)C2)CC(=O)[C@H](C)/C=C(\C)[C@@H](O)[C@@H](OC)C(=O)[C@H](C)C[C@H](C)/C=C/C=C/C=C/1C [rapamycin]
[1]
  Decline in TFEB protein levels during viral infection: did not rescue

## CC(C)C[C@H](NC(=O)[C@H](CCc1ccccc1)NC(=O)CN1CCOCC1)C(=O)N[C@@H](Cc1ccccc1)C(=O)N[C@@H](CC(C)C)C(=O)[C@@]1(C)CO1 [carfilzomib]
[1]
  TFEB protein during viral infection: substantially preserved

## CCC(=O)N1CCN(c2ccc(-n3c(=O)ccc4cnc5ccc(-c6cnc7ccccc7c6)cc5c43)cc2C(F)(F)F)CC1 [Torin1]
[1]
  Decline in TFEB protein levels during viral infection: did not rescue

B1: Biotinylated TFEB peptide, region 136 to 145, unmodified sequence (I), P19484 S138D; S142D (peptide)
chain: GNDAPNDPMA
[2]
  response: 2.9

B2: Biotinylated TFEB peptide, region 136 to 145, unmodified sequence (I), P19484 S138A; S142A (peptide)
chain: GNAAPNAPMA
[2]
  response: 0.5
